Biological target: T1, LcFFase1s (β-D-fructofuranosidase) (Leptothrix cholodnii, UniProt B1Y2A2)
T1 construct: gene Lcho_3297; codon-optimised synthetic gene in pET-28a(+) NdeI/XhoI, E. coli BL21(DE3), Ni-IDA purified (His tag implied, cleavage not mentioned)
T1 sequence (B1Y2A2 1-480): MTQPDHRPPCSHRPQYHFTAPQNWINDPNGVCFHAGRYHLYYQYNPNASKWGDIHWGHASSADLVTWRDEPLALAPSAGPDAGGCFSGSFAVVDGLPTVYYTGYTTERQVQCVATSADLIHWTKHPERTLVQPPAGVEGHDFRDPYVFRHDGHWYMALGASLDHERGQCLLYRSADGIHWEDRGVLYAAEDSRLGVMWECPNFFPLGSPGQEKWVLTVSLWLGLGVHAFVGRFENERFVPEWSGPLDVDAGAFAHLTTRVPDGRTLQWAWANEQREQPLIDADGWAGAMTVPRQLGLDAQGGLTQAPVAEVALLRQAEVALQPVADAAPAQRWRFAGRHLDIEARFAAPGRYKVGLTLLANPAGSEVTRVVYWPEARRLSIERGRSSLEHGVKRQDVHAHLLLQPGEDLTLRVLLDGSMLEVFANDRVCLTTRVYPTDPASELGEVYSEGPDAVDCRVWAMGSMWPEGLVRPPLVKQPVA
Test: TLC of hydrolysis products
Assay type: biochemical
Settings: 20 mg/mL substrate, 5 U/mL enzyme, 50 mM sodium hydrogen phosphate-citrate pH 6.5, 40 °C

| SMILES | TLC of hydrolysis products |
| --- | --- |
| OC[C@H]1O[C@H](OC[C@H]2O[C@H](O[C@]3(CO)O[C@H](CO)[C@@H](O)[C@@H]3O)[C@H](O)[C@@H](O)[C@@H]2O)[C@H](O)[C@@H](O)[C@H]1O [raffinose] | LcFFase1s entirely hydrolyzed raffinose and stachyose into fructose and melibiose or raffinose |
| OC[C@H]1O[C@H](OC[C@H]2O[C@H](OC[C@H]3O[C@H](O[C@]4(CO)O[C@H](CO)[C@@H](O)[C@@H]4O)[C@H](O)[C@@H](O)[C@@H]3O)[C@H](O)[C@@H](O)[C@H]2O)[C@H](O)[C@@H](O)[C@H]1O [stachyose] | LcFFase1s entirely hydrolyzed raffinose and stachyose into fructose and melibiose or raffinose |

Source: PMC10137817, “Efficient Degradation for Raffinose and Stachyose of a β-D-Fructofuranosidase and Its New Function to Improve Gel Properties of Coagulated Fermented-Soymilk” (Gels, 2023)
